# From publication PMC4779956 (Journal of medicinal chemistry, 2015)
# What was measured:
# ERα [1] = target: T1, ERα (Homo sapiens, UniProt P03372); test: ERE-luciferase reporter assay; assay type: cell-based; details: for Efficacy (% E2): MCF-7:ws8 cells, normalized to Ctrl (0%) and E2 1 nM (100%)
# T1 sequence (P03372 1-595): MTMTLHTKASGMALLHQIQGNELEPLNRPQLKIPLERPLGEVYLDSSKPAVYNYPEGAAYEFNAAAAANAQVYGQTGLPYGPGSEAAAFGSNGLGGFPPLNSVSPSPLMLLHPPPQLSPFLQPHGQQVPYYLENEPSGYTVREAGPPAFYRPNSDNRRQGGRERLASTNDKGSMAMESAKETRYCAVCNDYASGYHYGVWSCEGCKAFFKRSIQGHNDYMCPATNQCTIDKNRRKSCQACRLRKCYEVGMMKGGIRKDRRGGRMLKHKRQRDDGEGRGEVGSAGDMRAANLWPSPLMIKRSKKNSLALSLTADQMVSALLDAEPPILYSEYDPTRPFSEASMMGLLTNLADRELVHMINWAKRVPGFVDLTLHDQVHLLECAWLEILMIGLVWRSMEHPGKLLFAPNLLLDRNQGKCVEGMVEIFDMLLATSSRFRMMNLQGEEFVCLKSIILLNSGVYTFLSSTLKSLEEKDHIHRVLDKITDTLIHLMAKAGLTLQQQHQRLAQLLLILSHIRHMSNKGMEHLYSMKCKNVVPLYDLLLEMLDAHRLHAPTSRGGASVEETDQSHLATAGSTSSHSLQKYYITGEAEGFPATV
# MCF-7:5C cells = test: MCF-7:5C cell viability assay; assay type: cell-based, human
# [2] = Uterine weight in xenograft study; assay type: in vivo, mice; details: T47D:A18/PKCα xenograft study, 100 mg/kg oral daily
# T47D:A18/PKCα tumors [3] = test: T47D:A18/PKCα tamoxifen-resistant xenograft; assay type: in vivo, mice; details: 100 mg/kg oral gavage daily, within two weeks
# ERα [4] = target: T1, ERα; test: Antagonism of E2-induced ERE-luciferase activation; assay type: cell-based; details: MCF-7:ws8, in presence of 0.1 nM E2, ShERPA 100-500 nM, 18 h
# ERα-LBD/SRC3 complex [5] = target: T2, ERα-LBD/SRC3 complex (Homo sapiens, UniProt P03372); test: TR-FRET SRC3 titration; assay type: biochemical; details: 20 μM ligand
# T2 sequence (P03372 311-547 limits assumed): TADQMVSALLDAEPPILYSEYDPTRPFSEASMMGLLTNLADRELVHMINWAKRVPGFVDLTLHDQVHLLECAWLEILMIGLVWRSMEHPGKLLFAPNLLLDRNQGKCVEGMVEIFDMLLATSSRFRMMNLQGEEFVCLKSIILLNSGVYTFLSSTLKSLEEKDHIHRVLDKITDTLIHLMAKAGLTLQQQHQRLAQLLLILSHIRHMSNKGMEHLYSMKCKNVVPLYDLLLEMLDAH
# T2 sequence (Q9Y6Q9 627-829 partner limits assumed): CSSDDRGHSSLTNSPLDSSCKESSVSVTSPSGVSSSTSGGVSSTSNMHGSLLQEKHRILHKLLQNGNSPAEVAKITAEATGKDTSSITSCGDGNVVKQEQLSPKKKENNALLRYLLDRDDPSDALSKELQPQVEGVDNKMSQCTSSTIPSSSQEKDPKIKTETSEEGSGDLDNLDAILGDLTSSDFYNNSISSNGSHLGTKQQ
# ERα-LBD/SRC3 complex [6] = target: T2, ERα-LBD/SRC3 complex; test: TR-FRET ligand titration in presence of 10 nM E2; assay type: biochemical; details: in presence of 10 nM E2, 100 nM SRC3
# T47D:A18-TAM1 = T47D:A18-TAM1 model; cited from earlier work
# [7] = T47D:A18/PKCα xenograft study; cited from earlier work
# T47D:A18/PKCα tumors [8] = details: T47D:A18/PKCα model; cited from earlier work
smiles,measurement,setting,value
"O=C(c1ccc(C(F)(F)F)cc1)c1c(-c2ccc(Cl)cc2)sc2cc(O)ccc12 [Compound 14c, (2-(4-chlorophenyl)-6-hydroxybenzo[b]thiophen-3-yl)(4-(trifluoromethyl)phenyl)methanone]",Efficacy (% E2),ERα [1],100 % E2
Cc1ccc(C(=O)c2c(-c3ccc(O)cc3)sc3cc(O)ccc23)cc1 [Compound 14a],Efficacy (% E2),ERα [1],100 % E2
"C[C@]12CC[C@@H]3c4ccc(O)cc4CC[C@H]3[C@@H]1CC[C@@H]2O [Compound E2, estradiol, reference compound]",Reduction of cell viability compared to vehicle control,MCF-7:5C cells; 9 days,approximately 60%
"O=C(c1ccc(C(F)(F)F)cc1)c1sc2cc(O)ccc2c1-c1ccc(F)cc1 [Compound 26a, (3-(4-fluorophenyl)-6-hydroxybenzo[b]thiophen-2-yl)(4-(trifluoromethyl)phenyl)methanone]",Uterine weight versus vehicle control,[2],no significant increase in uterine weight compared to vehicle control mice
same,Tumor size versus control tumors,T47D:A18/PKCα tumors [3],half the size of control tumors
same,Efficacy (% E2),ERα [1],85 % E2
"CS(=O)(=O)c1ccc(C(=O)c2sc3cc(O)ccc3c2-c2ccc(F)cc2)cc1 [Compound 21a, (3-(4-fluorophenyl)-6-hydroxybenzo[b]thiophen-2-yl)(4-(methylsulfonyl)phenyl)methanone]",Efficacy (% E2),ERα [1],100 % E2
"O=C(c1sc2cc(O)ccc2c1-c1ccc(F)cc1)C1CCCCC1 [Compound 21g, Cyclohexyl(3-(4-fluorophenyl)-6-hydroxybenzo[b]thiophen-2-yl)methanone]",Inhibition of cell growth relative to E2 %,"MCF-7:5C cells; 10 nM, 9 day, control 0 %, E2 100 %, 0.01 µM",100%
same,Efficacy (% E2),ERα [1],100 % E2
"O=C(c1ccc(O)cc1)c1sc2cc(O)ccc2c1-c1ccc(F)cc1 [Compound 21b, (3-(4-fluorophenyl)-6-hydroxybenzo[b]thiophen-2-yl)(4-hydroxyphenyl)methanone]",Efficacy (% E2),ERα [1],100 % E2
"Oc1ccc2c(-c3ccc(F)cc3)c(Oc3ccc(Cl)cc3)sc2c1 [Compound 30b, 2-(4-chlorophenoxy)-3-(4-fluorophenyl)benzo[b]thiophen-6-ol]",Antagonism of E2 induced ERE activation,ERα [4],dose dependent reduction in E2 luciferase activity
same,Efficacy (% E2),ERα [1],70 % E2
"O=C(c1ccc(C(F)(F)F)cc1)c1c(-c2ccc(F)cc2)sc2cc(O)ccc12 [Compound 14b, (2-(4-fluorophenyl)-6-hydroxybenzo[b]thiophen-3-yl)(4-(trifluoromethyl)phenyl)methanone]",Efficacy (% E2),ERα [1],100 % E2
"C#Cc1ccc(C(=O)c2sc3cc(O)ccc3c2-c2ccc(F)cc2)cc1 [Compound 23, (4-ethynylphenyl)(3-(4-fluorophenyl)-6-hydroxybenzo[b]thiophen-2-yl)methanone]",Maximal FRET signal relative to E2-liganded ERα-LBD/SRC3 complex,ERα-LBD/SRC3 complex [5],less than 50%
same,Antagonism of E2 induced ERE activation,ERα [4],dose dependent reduction in E2 luciferase activity
same,Effect on FRET signal on ligand titration,ERα-LBD/SRC3 complex [6],reduced FRET signal
same,Tumor size versus control tumors,T47D:A18/PKCα tumors [3],half the size of control tumors
same,EC50,ERα [1],5 nM
same,Efficacy (% E2),ERα [1],65 % E2
"Oc1ccc(Oc2c(-c3ccc(F)cc3)sc3cc(O)ccc23)cc1 [Compound 19, 2-(4-fluorophenyl)-3-(4-hydroxyphenoxy)benzo[b]thiophen-6-ol]",Efficacy (% E2),ERα [1],100 % E2
"Oc1ccc2c(-c3ccc(F)cc3)c(Oc3ccc(F)c(F)c3)sc2c1 [Compound 30d, 2-(3,4-difluorophenoxy)-3-(4-fluorophenyl)benzo[b]thiophen-6-ol]",Efficacy (% E2),ERα [1],100 % E2
"Oc1ccc2c(-c3ccc(F)cc3)c(Oc3ccc(F)cc3)sc2c1 [Compound 30c, 2-(4-fluorophenoxy)-3-(4-fluorophenyl)benzo[b]thiophen-6-ol]",Efficacy (% E2),ERα [1],100 % E2
"N#Cc1ccc(C(=O)c2sc3cc(O)ccc3c2-c2ccc(F)cc2)cc1 [Compound 26b, 4-(3-(4-fluorophenyl)-6-hydroxybenzo[b]thiophene-2-carbonyl)benzonitrile]",Efficacy (% E2),ERα [1],100 % E2
"Oc1ccc(Oc2sc3cc(O)ccc3c2-c2ccc(F)cc2)cc1 [Compound 30a, 3-(4-fluorophenyl)-2-(4-hydroxyphenoxy)benzo[b]thiophen-6-ol]",Maximal FRET signal relative to E2-liganded ERα-LBD/SRC3 complex,ERα-LBD/SRC3 complex [5],less than 50%
same,Xenograft tumor regression,T47D:A18-TAM1,dramatic regression
same,Uterine weight,[7],not accompanied by a significant increase in uterine weight
same,Antagonism of E2 induced ERE activation,ERα [4],dose dependent reduction in E2 luciferase activity
same,Effect on FRET signal on ligand titration,ERα-LBD/SRC3 complex [6],reduced FRET signal
same,Xenograft tumor regression,T47D:A18/PKCα tumors [8],dramatic regression
same,Efficacy (% E2),ERα [1],60 % E2
